Results reported in ChEMBL document CHEMBL6182924, “Discovery of a Novel and Potent MET Transcription Inhibitor Targeting Promoter G-Quadruplex for the Treatment of NSCLC” (J Med Chem, 2025).
The source made the active and inactive calls. The rule behind the calls is not given here.

Key:
[1] = test system: BaF3; assay: Antiproliferative activity against mouse BaF3 cells harboring TPR-MET L1195V mutant incubated for 24 hrs by CCK-8 assay; format: functional, cell-based; details: BaF3, 24 h
[2] = test system: A549; assay: Inhibition of c-MET expression in human A549 cells up to 2000 nM by Western blot analysis; format: functional, cell-based
[3] = Toxicity in BALB/c mouse xenografted with human A549 cells assessed as heart damage at 40 mg/kg, po administered once a day and measured after 20 days by H and E staining based analysis; format: organism-based; details: in vivo, 480 h, time 20 day
[4] = test system: A549; assay: Antitumor activity against human A549 cells xenografted in BALB/c mouse assessed as tumor growth inhibition at 20 mg/kg, po administered once a day and measured up to 24 days; format: functional; details: A549, 576 h, time <= 24 day, read-out: TGI
[5] = test system: NCI-H1975; assay: Induction of cell cycle arrest in human NCI-H1975 cells assessed as accumulation of cells at G1 phase at 2 uM measured for 24 hrs by PI/Rnase staining based flow cytometry (reference value: 79.2 %); format: functional
[6] = test system: NCI-H1975; assay: Inhibition of cell migration in human NCI-H1975 cells incubated for 12 hrs by crystal violet staining based analysis; format: functional; details: dose 0.5-2 µM
[7] = test system: NCI-H1975; assay: Induction of cell cycle arrest in human NCI-H1975 cells assessed as accumulation of cells at G2 phase at 2 uM measured for 24 hrs by PI/Rnase staining based flow cytometry (reference value: 14.8 %); format: functional
[8] = test system: NCI-H1975; assay: Induction of apoptosis in human NCI-H1975 cells assessed as early apoptotic cells at 2 uM incubated for 24 hrs by Annexin V-FITC/PI staining based flow cytometry analysis (reference value: 0.35 %); format: functional
[9] = Toxicity in BALB/c mouse xenografted with human A549 cells assessed as liver damage at 20 mg/kg, po administered once a day and measured after 20 days by H and E staining based analysis; format: organism-based; details: in vivo, 480 h, time 20 day
[10] = test system: A549; assay: Antitumor activity against human A549 cells xenografted in BALB/c mouse assessed as downregulation of c-MET expression in tumor at 20 mg/kg, po administered once a day and measured for 20 days by Western blot analysis; format: functional, organism-based; details: time 20.0 day
[11] = test system: NCI-H1975; assay: Induction of apoptosis in human NCI-H1975 cells assessed as necrotic cells at 2 uM incubated for 24 hrs by Annexin V-FITC/PI staining based flow cytometry analysis (reference value: 7.33 %); format: functional
[12] = test system: NCI-H1975; assay: Induction of apoptosis in human NCI-H1975 cells assessed as late apoptotic cells at 0.5 uM incubated for 24 hrs by Annexin V-FITC/PI staining based flow cytometry analysis (reference value: 2.27 %); format: functional
[13] = Acute toxicity in Sprague-Dawley rat assessed as heart damage at 500 to 2000 mg/kg, po measured every 2 days by H and E staining based analysis; format: organism-based; details: in vivo, 48 h, dose 500-2000 mg/kg, time 2 day
[14] = test system: A549; assay: Induction of cell cycle arrest in human A549 cells assessed as accumulation of cells at G2 phase at 0.5 uM measured for 24 hrs by PI/Rnase staining based flow cytometry (reference value: 13.4 %); format: functional
[15] = test system: A549; assay: Induction of apoptosis in human A549 cells assessed as viable cells at 1 uM incubated for 24 hrs by Annexin V-FITC/PI staining based flow cytometry analysis (reference value: 91.3%); format: functional; details: read-out: Activity
[16] = Toxicity in BALB/c mouse xenografted with human A549 cells assessed as spleen damage at 20 mg/kg, po administered once a day and measured after 20 days by H and E staining based analysis; format: organism-based; details: in vivo, 480 h, time 20 day
[17] = test system: NCI-H1975; assay: Antiproliferative activity against human NCI-H1975 cells assessed as inhibition of cell growth incubated for 3 days by CCK-8 assay; format: functional, cell-based; details: time 3.0 day
[18] = test system: NCI-H1975; assay: Induction of apoptosis in human NCI-H1975 cells assessed as necrotic cells at 1 uM incubated for 24 hrs by Annexin V-FITC/PI staining based flow cytometry analysis (reference value: 7.33 %); format: functional
[19] = Acute toxicity in Sprague-Dawley rat at 500 to 2000 mg/kg, po measured every 2 days; format: organism-based; details: in vivo, 48 h, dose 500-2000 mg/kg, time 2 day
[20] = test system: A549; assay: Antiproliferative activity against human A549 cells assessed as inhibition of cell growth incubated for 3 days by CCK-8 assay; format: functional, cell-based; details: time 3.0 day
[21] = Toxicity in BALB/c mouse xenografted with human A549 cells assessed as body weight loss at 40 mg/kg, po administered once a day and measured after 20 days; format: organism-based; details: in vivo, 480 h, time 20 day
[22] = test system: A549; assay: Induction of apoptosis in human A549 cells assessed as necrotic cells at 0.5 uM incubated for 24 hrs by Annexin V-FITC/PI staining based flow cytometry analysis (reference value: 4.37 %); format: functional
[23] = test system: A549; assay: Downregulation of c-Met expression in human A549 cells at 1 uM by Western blot analysis; format: functional, cell-based; details: time <= 72.0 hrs
[24] = test system: BaF3; assay: Antiproliferative activity against mouse BaF3 cells harboring TPR-MET D1228N mutant incubated for 24 hrs by CCK-8 assay; format: functional, cell-based; details: BaF3, 24 h
[25] = Acute toxicity in Sprague-Dawley rat assessed as kidney damage at 500 to 2000 mg/kg, po measured every 2 days by H and E staining based analysis; format: organism-based; details: in vivo, 48 h, dose 500-2000 mg/kg, time 2 day
[26] = test system: NCI-H1975; assay: Induction of apoptosis in human NCI-H1975 cells assessed as viable cells at 1 uM incubated for 24 hrs by Annexin V-FITC/PI staining based flow cytometry analysis (reference value: 90.1 %); format: functional; details: read-out: Activity
[27] = test system: A549; assay: Inhibition of colony formation in human A549 cells incubated for 2 weeks by crystal violet staining based analysis; format: functional, cell-based; details: dose 0.5-2 µM
[28] = test system: A549; assay: Induction of apoptosis in human A549 cells assessed as early apoptotic cells at 2 uM incubated for 24 hrs by Annexin V-FITC/PI staining based flow cytometry analysis (reference value: 1.73 %); format: functional
[29] = test system: A549; assay: Induction of apoptosis in human A549 cells assessed as early apoptotic cells at 1 uM incubated for 24 hrs by Annexin V-FITC/PI staining based flow cytometry analysis (reference value: 1.73 %); format: functional
[30] = test system: A549; assay: Induction of cell cycle arrest in human A549 cells assessed as accumulation of cells at G2 phase at 1 uM measured for 24 hrs by PI/Rnase staining based flow cytometry (reference value: 13.4 %); format: functional
[31] = test system: NCI-H1975; assay: Induction of apoptosis in human NCI-H1975 cells assessed as early apoptotic cells at 1 uM incubated for 24 hrs by Annexin V-FITC/PI staining based flow cytometry analysis (reference value: 0.35 %); format: functional
[32] = test system: A549; assay: Induction of apoptosis in human A549 cells assessed as late apoptotic cells at 1 uM incubated for 24 hrs by Annexin V-FITC/PI staining based flow cytometry analysis (reference value: 2.56 %); format: functional
[33] = test system: NCI-H1975; assay: Antiproliferative activity against MET knockdown human NCI-H1975 cells assessed as inhibition of cell growth by CCK-8 assay; format: functional, cell-based
[34] = test system: A549; assay: Antitumor activity against human A549 cells xenografted in BALB/c mouse assessed as reduction in ki67 expression in tumor at 40 mg/kg, po administered once a day and measured up to 24 days by […] based analysis; format: functional, organism-based; details: time <= 24.0 day
[35] = test system: A549; assay: Antiproliferative activity against MET knockdown human A549 cells assessed as inhibition of cell growth by CCK-8 assay; format: functional, cell-based

COc1cccc(-c2ccc(-c3nc4c5cccnc5c5ncccc5c4[nH]3)o2)c1
IC50 [1]: 510 nM
inhibition [2]: Active
Activity [3]: Non-toxic
inhibition in vivo at 20 mg/kg [4]: 43%
Activity [5]: 84.2%
inhibition [6]: Dose-dependent-effect
Activity [7]: 11%
Activity [8]: 2.21%
Activity [9]: Non-toxic
Activity [10]: Active
Activity [11]: 3.94%
Activity [12]: 8.12%
Activity [13]: Non-toxic
Activity [14]: 14.6%
viability at 1 µM [15]: 74%
Activity [16]: Non-toxic
Activity [17]: Active
Activity [18]: 4.06%
Activity [19]: Non-toxic
Activity [20]: Active
Activity [21]: Non-toxic
Activity [22]: 3.79%
Activity [23]: Time-dependent-effect
IC50 [24]: 400 nM
Activity [25]: Non-toxic
viability at 1 µM [26]: 83.6%
inhibition [27]: Dose-dependent-effect
Activity [28]: 12.2%
Activity [29]: 6.47%
Activity [30]: 10.4%
Activity [31]: 2.2%
Activity [32]: 10.8%
Activity [33]: Active
Activity [34]: Active
Activity [35]: Active
